Assay results as given in US11015061B2, “Phthalocyanine-based compound and uses of same” (YAMAMOTO CHEMICALS, INC., priority 2017, dated 2021).

How the values were obtained:
Type in all cases: physicochemical
[1] = Light fastness test of heat ray shielding film; conditions: xenon light 200 hours at 550 W/h, absorbance integrated 400 to 900 nm
Method: (§1) In the evaluation test, the release film was peeled from the produced heat ray shielding film, then the heat ray shielding film was compressed on a 5 cm×5 cm×3 mm (thickness) glass plate, and a test piece created in this way was used.
For a light fastness test, the absorption spectrum of the test piece was measured using a spectrophotometer (produced by Hitachi, Ltd.: Spectrophotometer U-3500) and adopted as a spectrum before light fastness test. Then, the test piece used for measuring the spectrum before test was irradiated with light for 200 hours at 550 W/h by using a xenon light fastness tester (produced by Toyo Seiki Seisaku-sho, Ltd.: SUNTEST XLS+). The absorption spectrum of the test piece irradiated with light was measured using the spectrophotometer and adopted as a spectrum after light fastness test.
(§2) In each of the spectra measured as above before and after the light fastness⋅heat resistance test, the values of absorbance within a range of 400 to 900 nm were integrated, and a difference between the integrated value before the light fastness⋅heat resistance test and the integrated value after the light fastness⋅heat resistance test was calculated.
(§3) The difference ΔE between the absorbance before the light fastness⋅heat resistance test and the absorbance after the light fastness⋅heat resistance test is expressed by the following equation. ΔE (%)={E(400 to 900 nm in E1)−E(400 to 900 nm in E2)}/E(400 to 900 nm in E1)×100
(§4) E1 represents the spectrum before test, E2 represents the spectrum after test, and Σ represents integration of the values of absorbance.
(§5) The larger the value of ΔE, the greater the spectrum change between before and after the light fastness⋅heat resistance test.

[2] = Visible light transmittance of laminated glass sample; conditions: 380 to 780 nm, JIS R3212
Method: (§6) The phthalocyanine-based compound (Specific Example (1)-30) produced in Example 1 (0.013 g) was dissolved in 40 g of triethylene glycol-di-2-ethylhexanoate as an organic ester plasticizer. The obtained solution was added to 100 g of a polyvinyl butyral resin (trade name: BH-3, produced by SEKISUI CHEMICAL CO., LTD.), thoroughly melted and kneaded using a mixing roll, and extruded using an extruder, thereby obtaining an interlayer having a thickness of 0.76 mm.
(§7) The interlayer was cut in size of 100 mm×100 mm, interposed between heat ray absorbing glass plates (100 mm (length)×100 mm (width)×2.0 mm (thickness)) prepared based on JIS R3208, put into a rubber bag, and deaerated for 20 minutes at a degree of vacuum of 2.6 kPa. Then, the deaerated laminate was moved into an oven and further hold for 30 minutes at 90° C. to vacuum press. Thereafter, the laminate was compressed for 20 minutes in an autoclave under the condition of a temperature of 130° C. and a pressure of 1.3 MPa, thereby obtaining a laminated glass sample.
By using U-3500 type recording spectrophotometer produced by Hitachi, Ltd. as a measurement instrument, the visible light transmittance of the laminated glass samples at a wavelength of 380 to 780 nm was measured based on JIS R3212 “Test methods of safety glazing materials for road vehicles”.

[3] = Heat resistance test of heat ray shielding film; conditions: 200 hours at 100° C., absorbance integrated 400 to 900 nm
Method: as §1
For a heat resistance test, the test piece used for measuring the spectrum before test as described above was treated with heat for 200 hours at a temperature of 100° C. in a thermostat (produced by Yamato Scientific co., ltd.: IG400). By using the spectrophotometer, the absorption spectrum of the heat-treated test piece was measured and adopted as a spectrum after heat resistance test.
as §2, §3, §4, §5

[4] = Tts of laminated glass sample; conditions: 0.76 mm PVB interlayer with 0.013 g compound per 100 g resin, JIS R3106
Method: as §6, §7
By using U-3500 type recording spectrophotometer produced by Hitachi, Ltd. as a measurement instrument, Tts of the laminated glass samples was measured based on JIS R3106 “Testing method for transmittance, reflectance, emissivity, and solar heat gain coefficient of flat glasses”.

| SMILES | ΔE (%) Light fastness [1] [%] | Visible light transmittance [2] [%] | ΔE (%) Heat resistance [3] [%] | Tts [4] [%] |
| --- | --- | --- | --- | --- |
| COc1cccc(OC)c1OCCCCc1ccc(CCCCOc2c(OC)cccc2OC)c2c1-c1nc-2nc2[n-]c(nc3nc(nc4[n-]c(n1)c1c(CCCCOc5c(OC)cccc5OC)ccc(CCCCOc5c(OC)cccc5OC)c41)-c1c(CCCCOc4c(OC)cccc4OC)ccc(CCCCOc4c(OC)cccc4OC)c1-3)c1c(CCCCOc3c(OC)cccc3OC)ccc(CCCCOc3c(OC)cccc3OC)c21.[Cu+2] [Specific Example (1)-45] | 2 | 77.4 | 3 | 52.5 |
| COCc1ccc(COC)c2c1-c1nc-2nc2[n-]c(nc3nc(nc4[n-]c(n1)c1c(COC)ccc(COC)c41)-c1c(COC)ccc(COC)c1-3)c1c(COC)ccc(COC)c21.[O]=[V+2] [Comparative Example Compound (a), reference compound] | 33 | 75 | 31 | 53.6 |
| CCOCCCCc1ccc(CCCCOCC)c2c1-c1nc-2nc2[n-]c(nc3nc(nc4[n-]c(n1)c1c(CCCCOCC)ccc(CCCCOCC)c41)-c1c(CCCCOCC)ccc(CCCCOCC)c1-3)c1c(CCCCOCC)ccc(CCCCOCC)c21.[O]=[V+2] [Specific Example (1)-33] | 3 | 77.5 | 2 | 51.5 |
| Fc1ccccc1OCCCCc1ccc(CCCCOc2ccccc2F)c2c1-c1nc-2nc2[n-]c(nc3nc(nc4[n-]c(n1)c1c(CCCCOc5ccccc5F)ccc(CCCCOc5ccccc5F)c41)-c1c(CCCCOc4ccccc4F)ccc(CCCCOc4ccccc4F)c1-3)c1c(CCCCOc3ccccc3F)ccc(CCCCOc3ccccc3F)c21.[O]=[V+2] [Specific Example (1)-43] | 2 | 77.6 | 3 | 52 |
| [O]=[V+2].c1ccc(OCCCCc2ccc(CCCCOc3ccccc3)c3c2-c2nc-3nc3[n-]c(nc4nc(nc5[n-]c(n2)c2c(CCCCOc6ccccc6)ccc(CCCCOc6ccccc6)c52)-c2c(CCCCOc5ccccc5)ccc(CCCCOc5ccccc5)c2-4)c2c(CCCCOc4ccccc4)ccc(CCCCOc4ccccc4)c32)cc1 [Specific Example (1)-37] | 5 | 77.9 | 3 | 52.6 |
| COCCCCc1ccc(CCCCOC)c2c1-c1nc-2nc2[n-]c(nc3nc(nc4[n-]c(n1)c1c(CCCCOC)ccc(CCCCOC)c41)-c1c(CCCCOC)ccc(CCCCOC)c1-3)c1c(CCCCOC)ccc(CCCCOC)c21.[Cu+2] [Specific Example (1)-31] | 3 | 77.7 | 3 | 51.5 |
| [O]=[V+2].c1ccc(OCCOCCCCc2ccc(CCCCOCCOc3ccccc3)c3c2-c2nc-3nc3[n-]c(nc4nc(nc5[n-]c(n2)c2c(CCCCOCCOc6ccccc6)ccc(CCCCOCCOc6ccccc6)c52)-c2c(CCCCOCCOc5ccccc5)ccc(CCCCOCCOc5ccccc5)c2-4)c2c(CCCCOCCOc4ccccc4)ccc(CCCCOCCOc4ccccc4)c32)cc1 [Specific Example (1)-38] | 5 | 77.8 | 3 | 51.7 |
| CC(C)(C)c1ccc(OCCCCc2ccc(CCCCOc3ccc(C(C)(C)C)cc3)c3c2-c2nc-3nc3[n-]c(nc4nc(nc5[n-]c(n2)c2c(CCCCOc6ccc(C(C)(C)C)cc6)ccc(CCCCOc6ccc(C(C)(C)C)cc6)c52)-c2c(CCCCOc5ccc(C(C)(C)C)cc5)ccc(CCCCOc5ccc(C(C)(C)C)cc5)c2-4)c2c(CCCCOc4ccc(C(C)(C)C)cc4)ccc(CCCCOc4ccc(C(C)(C)C)cc4)c32)cc1.[O]=[V+2] [Specific Example (1)-42] | 4 | 77.7 | 4 | 52.3 |
| COc1cccc(OC)c1OCCCCc1ccc(CCCCOc2c(OC)cccc2OC)c2c1-c1nc-2nc2[n-]c(nc3nc(nc4[n-]c(n1)c1c(CCCCOc5c(OC)cccc5OC)ccc(CCCCOc5c(OC)cccc5OC)c41)-c1c(CCCCOc4c(OC)cccc4OC)ccc(CCCCOc4c(OC)cccc4OC)c1-3)c1c(CCCCOc3c(OC)cccc3OC)ccc(CCCCOc3c(OC)cccc3OC)c21.[O]=[V+2] [Specific Example (1)-44] | 3 | 77.9 | 4 | 52.9 |
| COc1cccc(OCCCCc2ccc(CCCCOc3cccc(OC)c3)c3c2-c2nc-3nc3[n-]c(nc4nc(nc5[n-]c(n2)c2c(CCCCOc6cccc(OC)c6)ccc(CCCCOc6cccc(OC)c6)c52)-c2c(CCCCOc5cccc(OC)c5)ccc(CCCCOc5cccc(OC)c5)c2-4)c2c(CCCCOc4cccc(OC)c4)ccc(CCCCOc4cccc(OC)c4)c32)c1.[O]=[V+2] [Specific Example (1)-39] | 4 | 78 | 3 | 52.7 |
| COCCCCc1ccc(CCCCOC)c2c1-c1nc-2nc2[n-]c(nc3nc(nc4[n-]c(n1)c1c(CCCCOC)ccc(CCCCOC)c41)-c1c(CCCCOC)ccc(CCCCOC)c1-3)c1c(CCCCOC)ccc(CCCCOC)c21.[O]=[V+2] [Specific Example (1)-30] | 5 | 78.1 | 6 | 53.2 |
| COc1cccc(OCCCCc2ccc(CCCCOc3cccc(OC)c3)c3c2-c2nc-3nc3[n-]c(nc4nc(nc5[n-]c(n2)c2c(CCCCOc6cccc(OC)c6)ccc(CCCCOc6cccc(OC)c6)c52)-c2c(CCCCOc5cccc(OC)c5)ccc(CCCCOc5cccc(OC)c5)c2-4)c2c(CCCCOc4cccc(OC)c4)ccc(CCCCOc4cccc(OC)c4)c32)c1.[Cu+2] [Specific Example (1)-40] | 2 | 77.9 | 3 | 52 |
